Experimental data as given in patent US8673981B2, “Phenylcyclobutylamide derivatives and their stereoisomers, the preparation processes and uses thereof” (priority 2008, dated 2014).
Entries after “also recorded” stand apart in the source; their conditions may differ.

Columns and labels:
obese rat model = assay: Weight-reducing pharmacodynamics study in the obese animal model (nutrient feed, 30 days); format: in vivo, Sprague Dawley rats; set-up: Average fat weight coefficient: unit not given here; settings: for Average added multiplier of body weight: (final - initial)/initial average body weight; for Average fat weight coefficient: average fat weight/final average body weight; for Average fat weight: intraperitoneal and perirenal fat; for Final average body weight: rats on nutrient feed
Source text: The experimental Study of Weight-Reducing on Pharmacodynamics
Same numbers of male and female weanling Sprague Dawley rats (clean grade, 43.3±8.5 g) were obtained from Laboratory Animal Center (Chongqing medical university, China) (Certificate of Approval for Environmental Facilities: SYXK (Yu) 20020007; Certificate of Approval for animal: SCXK (Yu) 20020001). 1.2 Medicine and Preparation: racemic compound hydrochloride of example 7, optical isomers of examples 8, 9, 10 and 11, and positive control Sibutramine Hydrochloride were dissolved in 1% CMC-Na. 1.3 Test Instrument: TGL-16 table model high speed centrifuge (Shanghai Medical Instruments Factory NO. 6); KDC centrifuge (Huicheng Radio Factory, Guangzhou); Sartorius electronic balance (GERMANY); Medical refrigerator temperature (SANYO, JAPAN); thermostat water bath tank (Beijing Xicheng district medical apparatus factory); VXH-3 Mini Vortex Mixer (Shanghai Yuejin Medical Apparatus Facotry). 1.4 Nutrition Feed: the recipe of nutrition feed and basal feed are as follows:
Barley flour 20%, dehydrated vegetable 10%, bean flour 20%, corn flour 16%, yeast 1%, wheat bran 16%, fish meal 10%, bone meal 5%, salt 2%.
In the 100 g basal feed, milk powder 10 g, lard 10 g, egg 1 piece, fresh bean sprouts 250 g, oleum jecoris piscis concentratum 10 drops (including VA 1700 u, VD1700 u) were added.
2.1 Establishment and Grouping of Obese Animal Model
Weanling SD rats were randomly allocated to compound groups with large, middle, small dosages; positive control Sibutramine Hydrochloride groups with large, middle, small dosages; and obese animal model group and blank control group (n=5/group for male; n=5/group for female).
The experimental animals in blank control group were feed with normal feed, and animals in other groups were feed with nutrient feed. All animals have abundant feed for 24 h and can eat casually.
Experimental animals in each group were administrated with corresponding drugs once a day at 9 am for 30 days, with a dosage of 1 ml/100 g body weight. The dosage corresponds to clinical dosage of 10 mg/person/day for Sibutramine, which is transformed according to the equivalent dosage between human and rat. Large dosage group adopts 1.2 mg/kg; middle dosage group adopts 0.6 mg/kg, and small dosage group adopts 0.3 mg/kg. Obese animal model group: […] of 1% CMC-Na solution; blank control group: […] of 1% CMC-Na solution.
Measurements were taken of daily body weight; general status; hair; eye, mouth and nose secretions; feces, urinate and activities.
Intraperitoneal and perirenal fat were weighted, and the fat weight coefficient was calculated by body weight.

[1] = background statement; cited from earlier work
[2] = large dosage 1.2 mg/kg once a day for 30 days
[3] = middle dosage 0.6 mg/kg once a day for 30 days
[4] = small dosage 0.3 mg/kg once a day for 30 days

SMILES | Average added multiplier of body weight (obese rat model; [2]) | Average fat weight coefficient (obese rat model; [2]) | Average fat weight (obese rat model; [2]) [g] | Final average body weight (obese rat model; [2]) [g] | Average added multiplier of body weight (obese rat model; [3]) | Average fat weight coefficient (obese rat model; [3]) | Average fat weight (obese rat model; [3]) [g] | Final average body weight (obese rat model; [3]) [g] | Average added multiplier of body weight (obese rat model; [4]) | Average fat weight coefficient (obese rat model; [4]) | Average fat weight (obese rat model; [4]) [g] | Final average body weight (obese rat model; [4]) [g] | Decrease of body weight compared with Sibutramine (obese rat model; obese rats, 30 days) | Effect of decreasing fat weight (obese rat model; obese rats, 30 days, among treatment groups and versus Sibutramine, hydrochloride) | Reduction of basal weight [1]
CCC(C)C(N)C(=O)NC(CC(C)C)C1(c2ccc(Cl)cc2)CCC1.Cl (racemic) [Example 7, 2-amino-N-{1-[1-(4-chlorophenyl)cyclobutyl]-3-methylbutyl}-3-methylvaleramide hydrochloride] | 3.2 | 1.1 | 2.0 | 176.2 | 3.3 | 1.2 | 2.1 | 180.5 | 3.3 | 1.2 | 2.2 | 186.9 |  |  | 
CC[C@H](C)[C@H](N)C(=O)N[C@@H](CC(C)C)C1(c2ccc(Cl)cc2)CCC1.Cl [Example 8, (2S,3S)-2-amino-N-{(S)-1-[1-(4-chlorophenyl)cyclobutyl]-3-methylbutyl}-3-methylvaleramide hydrochloride] | 3.0 | 1.0 | 1.7 | 175.2 | 3.2 | 1.0 | 1.9 | 185.6 | 3.4 | 1.1 | 2.0 | 188.9 |  |  | 
CC[C@H](C)[C@H](N)C(=O)N[C@H](CC(C)C)C1(c2ccc(Cl)cc2)CCC1.Cl [Example 9, (2S,3S)-2-amino-N-{(R)-1-[1-(4-chlorophenyl)cyclobutyl]-3-methylbutyl}-3-methylvaleramide hydrochloride] | 2.6 | 0.9 | 1.4 | 156.1 | 2.7 | 0.9 | 1.5 | 167.9 | 2.8 | 0.9 | 1.5 | 168.1 | decreased the body weight evidently | the best; also recorded: significantly better effect than Sibutramine | 
CC[C@@H](C)[C@@H](N)C(=O)N[C@@H](CC(C)C)C1(c2ccc(Cl)cc2)CCC1.Cl [Example 10, (2R,3R)-2-amino-N-{(S)-1-[1-(4-chlorophenyl)cyclobutyl]-3-methylbutyl}-3-methylvaleramide hydrochloride] | 3.0 | 1.1 | 1.9 | 173.9 | 3.2 | 1.2 | 2.0 | 180.4 | 3.2 | 1.2 | 2.1 | 185.0 |  |  | 
CC[C@@H](C)[C@@H](N)C(=O)N[C@H](CC(C)C)C1(c2ccc(Cl)cc2)CCC1.Cl [Example 11, (2R,3R)-2-amino-N-{(R)-1-[1-(4-chlorophenyl)cyclobutyl]-3-methylbutyl}-3-methylvaleramide hydrochloride] | 2.8 | 1.1 | 1.8 | 162.4 | 3.0 | 1.1 | 1.9 | 173.2 | 3.2 | 1.2 | 2.1 | 181.0 |  |  | 
CC(C)CC(N(C)C)C1(c2ccc(Cl)cc2)CCC1.Cl.O (stereo not drawn) [Sibutramine, 1-(4-chlorophenyl)-N,N-dimethyl-α-(2-methylpropyl)cyclobutanemethanamine hydrochloride monohydrate, reference compound] | 2.9 | 1.1 | 1.9 | 165.7 | 3.2 | 1.0 | 1.8 | 183.2 | 3.4 | 1.0 | 1.9 | 185.7 |  |  | 5%-10%
